From PMC10894237, “KDM3B inhibitors disrupt the oncogenic activity of PAX3-FOXO1 in fusion-positive rhabdomyosarcoma” (Nature Communications, 2024)

How the values were obtained:
KDM3B [1] = target: T1, KDM3B (Homo sapiens, UniProt Q7LBC6); assay: cell-free TR-FRET demethylase inhibition assay (Eurofins); assay type: biochemical
HU09 = assay: cells; design: 72 h cell growth/viability dose-response in pediatric solid tumour lines and primary fibroblasts; details: Fibroblast, 72 h; read-out: P3FI-63 EC50 (72 hr)
Description: (§1) The half-maximal effective concentrations (EC50) of P3FI-63 on FP-RMS cell lines RH4, RH30, and SCMC were in the single digit µM range (Fig. 1E). Next, we tested other pediatric solid cancer lines to determine broader applicability of P3FI-63.

7250 = assay: cells; design: 72 h cell growth/viability dose-response in pediatric solid tumour lines and primary fibroblasts; details: 72 h, primary human fibroblast; read-out: P3FI-63 EC50 (72 hr), fibroblast
Description: as §1

TC-32 = assay: cells; design: 72 h cell growth/viability dose-response in pediatric solid tumour lines and primary fibroblasts; details: Homo sapiens, TC-32, 72 h; read-out: P3FI-63 EC50 (72 hr)
Description: as §1

OSA = assay: cells; design: 72 h cell growth/viability dose-response in pediatric solid tumour lines and primary fibroblasts; details: Fibroblast, 72 h; read-out: P3FI-63 EC50 (72 hr)
Description: as §1

CTR = assay: cells; design: 72 h cell growth/viability dose-response in pediatric solid tumour lines and primary fibroblasts; details: Fibroblast, 72 h; read-out: P3FI-63 EC50 (72 hr)
Description: as §1

A673 = assay: cells; design: 72 h cell growth/viability dose-response in pediatric solid tumour lines and primary fibroblasts; details: Homo sapiens, A673, 72 h; read-out: P3FI-63 EC50 (72 hr)
Description: as §1

KDM3B [2] = target: T1, KDM3B; assay: SPR (Biacore T200); also WaterLOGSY and CPMG ligand-observed NMR, and enzyme inhibition (TR-FRET); assay type: binding; design: full-length KDM3B (His6-Avi-KDM3B) for SPR; enzymatic domain (truncated) for NMR

T1 sequence (Q7LBC6 2-1761): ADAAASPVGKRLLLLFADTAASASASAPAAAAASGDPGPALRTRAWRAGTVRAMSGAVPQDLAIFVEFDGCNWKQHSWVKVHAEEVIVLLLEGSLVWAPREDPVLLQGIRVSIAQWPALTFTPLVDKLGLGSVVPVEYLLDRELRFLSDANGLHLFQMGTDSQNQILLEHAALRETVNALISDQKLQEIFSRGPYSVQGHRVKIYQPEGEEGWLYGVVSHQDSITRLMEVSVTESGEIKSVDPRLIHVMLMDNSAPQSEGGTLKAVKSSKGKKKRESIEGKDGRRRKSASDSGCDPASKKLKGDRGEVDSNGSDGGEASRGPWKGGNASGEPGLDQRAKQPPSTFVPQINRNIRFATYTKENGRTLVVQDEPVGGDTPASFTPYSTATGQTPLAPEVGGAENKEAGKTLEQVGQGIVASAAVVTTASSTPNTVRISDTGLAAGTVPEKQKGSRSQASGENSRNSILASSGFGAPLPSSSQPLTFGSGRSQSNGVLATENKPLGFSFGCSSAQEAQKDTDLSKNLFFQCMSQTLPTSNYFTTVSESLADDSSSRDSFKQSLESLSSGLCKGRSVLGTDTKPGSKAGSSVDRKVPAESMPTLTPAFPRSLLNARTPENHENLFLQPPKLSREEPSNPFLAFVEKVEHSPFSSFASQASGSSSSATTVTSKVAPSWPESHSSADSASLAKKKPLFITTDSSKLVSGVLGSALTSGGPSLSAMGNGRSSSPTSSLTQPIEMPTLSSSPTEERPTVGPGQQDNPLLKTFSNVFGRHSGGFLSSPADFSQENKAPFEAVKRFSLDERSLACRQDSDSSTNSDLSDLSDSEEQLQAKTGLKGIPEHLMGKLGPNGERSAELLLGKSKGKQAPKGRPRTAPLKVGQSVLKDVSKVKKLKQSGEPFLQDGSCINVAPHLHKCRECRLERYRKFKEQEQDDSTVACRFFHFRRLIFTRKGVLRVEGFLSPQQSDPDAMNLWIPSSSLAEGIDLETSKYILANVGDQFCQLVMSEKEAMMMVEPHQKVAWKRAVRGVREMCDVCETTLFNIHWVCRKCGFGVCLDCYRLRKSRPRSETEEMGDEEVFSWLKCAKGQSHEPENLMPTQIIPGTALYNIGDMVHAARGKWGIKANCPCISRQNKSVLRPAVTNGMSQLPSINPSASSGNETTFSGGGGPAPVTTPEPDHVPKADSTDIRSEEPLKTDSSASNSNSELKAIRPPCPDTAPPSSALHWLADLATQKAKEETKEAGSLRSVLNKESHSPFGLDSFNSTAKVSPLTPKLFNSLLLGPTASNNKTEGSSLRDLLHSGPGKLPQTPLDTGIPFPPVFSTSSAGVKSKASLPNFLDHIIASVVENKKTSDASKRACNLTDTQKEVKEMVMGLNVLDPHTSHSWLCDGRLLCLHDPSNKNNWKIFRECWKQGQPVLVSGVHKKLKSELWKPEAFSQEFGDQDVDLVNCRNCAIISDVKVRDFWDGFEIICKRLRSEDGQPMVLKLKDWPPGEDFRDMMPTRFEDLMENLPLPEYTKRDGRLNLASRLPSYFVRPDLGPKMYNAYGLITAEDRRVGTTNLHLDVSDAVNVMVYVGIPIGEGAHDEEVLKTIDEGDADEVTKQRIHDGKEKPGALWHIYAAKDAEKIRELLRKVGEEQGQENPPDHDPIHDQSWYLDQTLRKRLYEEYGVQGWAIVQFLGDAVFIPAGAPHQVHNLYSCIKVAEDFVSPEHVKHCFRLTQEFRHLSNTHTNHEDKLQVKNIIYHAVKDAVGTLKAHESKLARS

| Structure (SMILES) | IC50 (KDM3B [1]) | EC50 (HU09) | EC50 7250 | EC50 (TC-32) | EC50 (OSA) | EC50 (CTR) | EC50 (A673) | Kd (KDM3B [2]) |
| --- | --- | --- | --- | --- | --- | --- | --- | --- |
| Cc1cc(C)cc(C(=O)NNC(=O)c2ccccn2)c1 [P3FI-63] | 7 µM | 3.1 µM | 6.62 µM | 1.7 µM | 7.5 µM | 2.92 µM | 3.7 µM | – |
| O=C(NNc1ccccn1)c1ccccn1 [P3FI-90] | – | – | – | – | – | – | – | 7.68 µM |
